Details: Liquid

CCCCCCn1cc[n+](C)c1.F[P-](F)(F)(F)(F)F [1-hexyl-3-methylimidazolium hexafluorophosphate]
viscosity [mPa·s]
Details	298.15 K	323.15 K	343.15 K
100 kPa, Moving piston method	481	121.4	48.1
101.33 kPa, Cone and plate viscometry	489.5	–	–
101.33 kPa, Moving piston method	481.4	121.4	48.1
2990 kPa, Moving piston method	523	–	–
4000 kPa, Moving piston method	530	127.1	50.3
7000 kPa, Moving piston method	556	–	–
7600 kPa, Moving piston method	–	132.4	52
22000 kPa, Moving piston method	701	–	–
25800 kPa, Moving piston method	–	164	62.6
35000 kPa, Moving piston method	833	182.6	68.6
42100 kPa, Moving piston method	920	–	–
50000 kPa, Moving piston method	1023	–	–
50600 kPa, Moving piston method	–	218.9	80.5
60300 kPa, Moving piston method	1176	241.7	88.1
76000 kPa, Moving piston method	–	280.8	102.5
93000 kPa, Moving piston method	–	334.2	118.7
101000 kPa, Moving piston method	–	364.2	127.1
126000 kPa, Moving piston method	–	483.1	157.8

CCn1cc[n+](C)c1.O=S(=O)([N-]S(=O)(=O)C(F)(F)F)C(F)(F)F
viscosity [mPa·s]
Details	298.15 K	323.15 K	343.15 K
100 kPa, Moving piston method	34.4	15.6	9.6
101.33 kPa, Cone and plate viscometry	34.1	–	–
101.33 kPa, Moving piston method	34.29	15.6	9.55
2820 kPa, Moving piston method	35	16.1	9.8
4190 kPa, Moving piston method	35.3	16.4	9.9
7360 kPa, Moving piston method	36.2	16.9	10.2
35560 kPa, Moving piston method	46.8	22	12.6
48760 kPa, Moving piston method	53.3	24.9	13.8
69300 kPa, Moving piston method	65	30.8	16
85200 kPa, Moving piston method	79.4	36.7	17.7
96500 kPa, Moving piston method	90	40.1	19.2
110550 kPa, Moving piston method	108.6	44.8	21.2
121530 kPa, Moving piston method	–	49.5	–
122430 kPa, Moving piston method	131.5	–	–
125530 kPa, Moving piston method	–	–	23.4

CCCCCC[n+]1ccn(C)c1.O=S(=O)([N-]S(=O)(=O)C(F)(F)F)C(F)(F)F
viscosity [mPa·s]
Details	298.15 K	323.15 K	343.15 K
100 kPa, Moving piston method	70.96	24.9	14.07
101.33 kPa, Cone and plate viscometry	71.5	–	–
101.33 kPa, Moving piston method	71	24.9	14.1
2990 kPa, Moving piston method	71.04	25.81	14.12
4000 kPa, Moving piston method	71.38	25.98	14.22
7000 kPa, Moving piston method	73.71	26.87	14.6
35000 kPa, Moving piston method	103.4	35.96	18.62
50000 kPa, Moving piston method	122.2	41.57	21.1
70000 kPa, Moving piston method	152.2	50.43	25.17
83000 kPa, Moving piston method	173.2	56.96	28.12
93000 kPa, Moving piston method	196.3	62.11	30.42
110000 kPa, Moving piston method	237.6	71.6	34.65
124000 kPa, Moving piston method	275.7	80.46	38.34

CCCCCCn1cc[n+](C)c1.F[B-](F)(F)F [1-hexyl-3-methylimidazolium tetrafluoroborate]
viscosity [mPa·s]
Details	Cone and plate viscometry	Moving piston method
298.15 K, 100 kPa	–	202
298.15 K, 101.33 kPa	210.4	202.4
298.15 K, 2640 kPa	–	209
298.15 K, 4290 kPa	–	213
298.15 K, 6950 kPa	–	215
298.15 K, 34590 kPa	–	299
298.15 K, 48400 kPa	–	387
298.15 K, 68140 kPa	–	478
298.15 K, 82970 kPa	–	532
298.15 K, 96820 kPa	–	621
298.15 K, 108550 kPa	–	743
298.15 K, 117850 kPa	–	819
323.15 K, 100 kPa	–	58.5
323.15 K, 101.33 kPa	–	58.5
323.15 K, 2600 kPa	–	59.7
323.15 K, 4130 kPa	–	61
323.15 K, 6850 kPa	–	62
323.15 K, 34520 kPa	–	79.9
323.15 K, 48180 kPa	–	91.1
323.15 K, 68990 kPa	–	108.2
323.15 K, 82710 kPa	–	121.8
323.15 K, 96550 kPa	–	136
323.15 K, 110120 kPa	–	152.4
323.15 K, 121810 kPa	–	165
343.15 K, 100 kPa	–	27
343.15 K, 101.33 kPa	–	27
343.15 K, 3100 kPa	–	27.6
343.15 K, 4100 kPa	–	27.5
343.15 K, 7100 kPa	–	28
343.15 K, 35100 kPa	–	35.2
343.15 K, 48340 kPa	–	39.2
343.15 K, 68140 kPa	–	45
343.15 K, 83080 kPa	–	49.9
343.15 K, 96550 kPa	–	55.1
343.15 K, 110120 kPa	–	60.8
343.15 K, 121810 kPa	–	65

CCCCCCCCCCn1cc[n+](C)c1.O=S(=O)([N-]S(=O)(=O)C(F)(F)F)C(F)(F)F
viscosity [mPa·s]
Details	298.15 K	323.15 K	343.15 K
100 kPa, Moving piston method	108.2	36.2	18.15
101.33 kPa, Cone and plate viscometry	111.2	–	–
101.33 kPa, Moving piston method	108.2	36.3	18.2
2950 kPa, Moving piston method	111.5	37.5	18.55
4270 kPa, Moving piston method	112.8	38.2	18.75
6900 kPa, Moving piston method	117.6	39.2	19.3
34600 kPa, Moving piston method	167.5	53.6	25.76
47960 kPa, Moving piston method	199	61.8	29.15
68870 kPa, Moving piston method	257	76	35.72
83290 kPa, Moving piston method	301.1	85.9	40.47
93030 kPa, Moving piston method	336.7	94.3	44.56
109800 kPa, Moving piston method	402.7	110.8	51.26
122570 kPa, Moving piston method	459.8	122.6	56.74

CCCCn1cc[n+](C)c1.F[P-](F)(F)(F)(F)F [1-butyl-3-methylimidazolium hexafluorophosphate]
298.15 K, Moving piston method
Details	viscosity [mPa·s]
100 kPa	270.9
3400 kPa	289.7
6900 kPa	305.7
12100 kPa	329.2
17200 kPa	353.7
24700 kPa	396.3
25700 kPa	398.2
41400 kPa	473.8
50600 kPa	543.4

Reference: the NIST ThermoML archive (doi:10.1007/s10765-008-0497-7)
